Consider three molecules from US4774252A, “Benzisoselenazolonyl derivatives and processes for the treatment of rheumatic disease” (priority 1985, dated 1988).

For experiment [1], the system named is CVF-oedema, carragenine-test. The settings on record: S. Leyck et al., Agents and Actions 13, 437-438 (1983); cited from earlier work.
Experiment [2] has as its system Cobra-Venom-Factor (CVF)-oedema. Briefly: CVF-oedema test (inflammation-inhibiting activity). The format is in vivo. The settings on record: po, read-out: ED50 values in CVF-oedema.

One may read the ED50 as the midpoint of the dose-response relation.

For `c1ccc([C@H]2CN3CCSC3=N2)cc1` [levamisole], the “inhibiting effect in CVF-oedema-test as compared with carragenine-test” value in experiment [1] is on record as “more significant inhibiting effect in CVF-oedema-test as in carragenine-test”. On to `CC(C)C(C(=O)O)n1[se]c2ccccc2c1=O` (racemic) [DL-2-(1,2-Benzisoselenazole-3(2H)-one-2-yl)-3-methylbutyric acid], for which, in experiment [2], the median effective dose (ED50) was found to be 5 mg/kg. As to `O=C1CCN(c2ccccc2)N1` [phenidone], the “inhibiting effect in CVF-oedema-test as compared with carragenine-test” value in experiment [1] is reported as “more significant inhibiting effect in CVF-oedema-test as in carragenine-test”.
